Source: ChEMBL document CHEMBL1201862, “PubChem BioAssay data set” (2004)
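Following 48 hours of exposure in 96-well plates, responses at five concentrations were used to interpolate endpoints linearly. GI50: concentration for 50% inhibition of growth.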 Calls of active or inactive are those of the source. No stated cut-off is given here; in the data, active = GI50 up to about 1.1 µM and inactive = higher. Where a SMILES comes first, the peptide text is derived from it. [ ]: non-standard residue; d: D form. The star is where a group is joined. ξ: configuration not given here. ξD = NC(CC(=O)O)C(=O)O; Boc = CC(C)(C)OC(=O)*; Aib = CC(C)(N)C(=O)O; OBn = c1ccc(CO*)cc1

Assays:
Experiment in all cases: NCI anticancer screen, dose series, 48 h
[1] = test system: 786-0
[2] = test system: ACHN
[3] = test system: CCRF-CEM
[4] = test system: DU-145
[5] = test system: HCC 2998
[6] = test system: HCT-116
[7] = test system: Hs-578T
[8] = test system: K562
[9] = test system: M14
[10] = test system: MCF7
[11] = test system: MOLT-4
[12] = test system: OVCAR-3
[13] = test system: OVCAR-5
[14] = test system: PC-3
[15] = test system: SF-268
[16] = test system: SF-295
[17] = test system: SNB-19
[18] = test system: HOP-92
[19] = test system: LOX IMVI
[20] = test system: SNB-75

Measured: GI50

CCCC(=O)N/S(=N/S(=O)(=O)c1ccc(Cl)cc1)C(Cl)(Cl)Cl (centres undefined)
inactive: [1] > 100 µM | [2] > 100 µM | [3] > 100 µM | [4] > 100 µM | [5] > 100 µM | [6] > 100 µM | [7] > 100 µM | [8] > 100 µM | [9] > 100 µM | [10] > 100 µM | [11] > 100 µM | [12] > 100 µM | [13] > 100 µM | [14] > 100 µM | [15] > 100 µM | [16] > 100 µM | [17] > 100 µM

Cc1nnc(S(=O)(=O)c2ccc(/N=N/c3c(N)nc(N)nc3N)cc2)s1
inactive: [1] > 100 µM | [2] > 100 µM | [3] > 100 µM | [4] > 100 µM | [6] > 100 µM | [18] > 100 µM | [7] > 100 µM | [8] > 100 µM | [19] > 100 µM | [9] > 100 µM | [10] > 100 µM | [11] > 100 µM | [12] > 100 µM | [13] > 100 µM | [14] > 100 µM | [15] > 100 µM | [16] > 100 µM | [17] > 100 µM

COCOc1cc(OC)ccc1C/C(=N/O)C(=O)OC
inactive: [1] > 100 µM | [2] > 100 µM | [3] > 100 µM | [4] > 100 µM | [5] > 100 µM | [6] > 100 µM | [7] > 100 µM | [8] > 100 µM | [19] > 100 µM | [9] > 100 µM | [10] > 100 µM | [11] > 100 µM | [12] > 100 µM | [13] > 100 µM | [14] > 100 µM | [15] > 100 µM | [16] > 100 µM | [17] > 100 µM | [20] 31.8 µM

N#Cc1[nH]c(=O)n(-c2ccc(Cl)cc2)c1N
inactive: [1] > 10 µM | [2] > 10 µM | [3] > 10 µM | [4] > 10 µM | [5] > 10 µM | [6] > 10 µM | [7] > 10 µM | [8] > 10 µM | [19] > 10 µM | [9] > 10 µM | [10] > 10 µM | [11] > 10 µM | [12] > 10 µM | [13] > 10 µM | [14] > 10 µM | [15] > 10 µM | [16] > 10 µM | [17] > 10 µM

CC(C)c1ccc(/C(C(=O)O)=C(\O)C(=O)O)cc1
inactive: [1] > 100 µM | [2] > 100 µM | [3] > 100 µM | [4] > 100 µM | [6] > 100 µM | [18] > 100 µM | [7] > 100 µM | [8] > 100 µM | [19] > 100 µM | [9] > 100 µM | [10] > 100 µM | [11] > 100 µM | [12] > 100 µM | [13] > 100 µM | [14] > 100 µM | [15] > 100 µM | [16] > 100 µM | [17] > 100 µM | [20] > 100 µM

CC(=O)N1c2ccccc2C(C)C1c1[nH]c2ccccc2c1C (centres undefined)
inactive: [1] 19.9 µM | [2] 32.3 µM | [3] 25.6 µM | [4] 28.3 µM | [5] 16.3 µM | [6] 16.5 µM | [7] 16.6 µM | [8] 19.5 µM | [19] 26.1 µM | [9] 18.7 µM | [10] 28.1 µM | [11] 19.7 µM | [12] 19.5 µM | [13] 14.9 µM | [14] 31.3 µM | [15] 23.4 µM | [16] 15 µM | [17] 31.6 µM | [20] 19.8 µM

CC(C)(C)OC(=O)NC(CC(=O)OCc1ccccc1)C(=O)NC(C)(C)C(N)=O (centres undefined) (Boc-[ξD](OBn)-[Aib]-NH2)
inactive: [1] > 100 µM | [2] > 100 µM | [3] > 100 µM | [4] > 100 µM | [6] > 100 µM | [18] > 100 µM | [7] > 100 µM | [8] > 100 µM | [19] > 100 µM | [9] > 100 µM | [10] > 100 µM | [11] > 100 µM | [12] > 100 µM | [13] > 100 µM | [14] > 100 µM | [15] > 100 µM | [16] > 100 µM | [17] > 100 µM | [20] > 100 µM

OC1(c2ccc3ccccc3c2)c2c(c3ccccc3c3ccccc23)C2=NCCN21 (centres undefined)
inactive: [1] 7.5 µM | [2] 8.22 µM | [3] 4.25 µM | [4] 16.9 µM | [6] 2.88 µM | [18] 7.18 µM | [7] 6.14 µM | [8] 3.81 µM | [19] 2.28 µM | [9] 2.12 µM | [10] 3.48 µM | [11] 4.81 µM | [12] 7.21 µM | [13] 7.78 µM | [14] 4.54 µM | [15] 5.79 µM | [16] 3.09 µM | [17] 12.9 µM | [20] 3.11 µM

C=C1CC[C@@]2(C)[C@@H]([C@@H]1C)[C@H]1CC[C@@H]3[C@@]4(C)CC[C@H](O)C(C)(C)[C@@H]4CC[C@@]3(C)[C@]1(C)C[C@@H]2O
inactive: [1] 2.7 µM | [2] 2.11 µM | [3] 5.83 µM | [4] 4.57 µM | [6] 2.99 µM | [18] 1.99 µM | [7] 2.69 µM | [19] 1.99 µM | [9] 4.66 µM | [10] 2.13 µM | [11] 3.22 µM | [12] 2.37 µM | [13] 4.25 µM | [14] 2.86 µM | [15] 2.28 µM | [16] 3.49 µM | [17] 2.32 µM

CC1(C)CCCCCC(O)C(O)CCC(C)(C)C1=O (centres undefined)
inactive: [1] > 100 µM | [2] > 100 µM | [3] > 100 µM | [4] > 100 µM | [6] > 100 µM | [18] > 100 µM | [7] > 100 µM | [8] > 100 µM | [19] > 100 µM | [9] > 100 µM | [10] > 100 µM | [11] > 100 µM | [12] > 100 µM | [13] > 100 µM | [14] > 100 µM | [15] > 100 µM | [16] > 100 µM | [17] > 100 µM | [20] > 100 µM

Fc1ccc(C(=C2CCN(CCc3ccc4[nH]c(=S)[nH]c4c3)CC2)c2ccc(F)cc2)cc1
inactive: [1] 1.86 µM | [2] 8.83 µM | [3] 2.01 µM | [4] 2.98 µM | [6] 1.79 µM | [18] 2.62 µM | [7] 10.9 µM | [8] 3.1 µM | [19] 4.9 µM | [9] 1.83 µM | [10] 2.21 µM | [11] 3 µM | [12] 2.1 µM | [13] 9.23 µM | [14] 2.73 µM | [15] 6.65 µM | [16] 6.92 µM | [17] 12.4 µM | [20] 2.92 µM

CCOC(=O)c1cnn2c1ncc1c(=O)n(NC(N)=O)ccc12
inactive: [1] > 100 µM | [2] > 100 µM | [3] > 100 µM | [4] > 100 µM | [6] > 100 µM | [18] > 100 µM | [7] > 100 µM | [19] > 100 µM | [9] > 100 µM | [10] > 100 µM | [11] > 100 µM | [12] > 100 µM | [13] > 100 µM | [14] > 100 µM | [15] > 100 µM | [16] > 100 µM | [17] > 100 µM | [20] > 100 µM

CC#CC(=O)SCCNC(=O)CC
inactive: [1] > 6.7 µM | [2] > 10 µM | [3] 3.05 µM | [4] > 10 µM | [5] > 10 µM | [6] 8.51 µM | [7] > 10 µM | [8] > 5.38 µM | [19] 3.31 µM | [9] > 8.05 µM | [10] 4.41 µM | [11] 1.48 µM | [12] > 10 µM | [13] > 10 µM | [14] > 10 µM | [15] > 10 µM | [16] > 10 µM | [17] > 10 µM | [20] > 10 µM

O=C(O)/C=C\C(=O)Nn1c(Cc2ccc(Cl)cc2)n[nH]c1=O
inactive: [1] > 100 µM | [3] > 100 µM | [4] > 100 µM | [5] > 100 µM | [6] > 100 µM | [7] > 100 µM | [8] > 100 µM | [9] > 100 µM | [10] > 100 µM | [11] > 100 µM | [12] > 100 µM | [13] > 100 µM | [14] > 100 µM | [15] > 100 µM | [16] > 100 µM

COc1cc(OC)c(C2c3cc4c(cc3OC(N3CCOCC3)C2C)OCO4)c(OC)c1 (centres undefined)
inactive: [1] 40.7 µM | [2] 12.3 µM | [3] 33.8 µM | [4] 21.5 µM | [5] > 100 µM | [6] 7.4 µM | [7] 2.45 µM | [8] 40.8 µM | [19] 23.2 µM | [9] 53.1 µM | [10] 37.8 µM | [11] 21.4 µM | [12] 7.29 µM | [13] 65.5 µM | [14] 42.3 µM | [15] 20.5 µM | [16] 14.7 µM | [17] 28.7 µM | [20] 16.4 µM
